Assay results as given in patent publication US20220289724A1, “KIF18A INHIBITORS” (AMGEN INC., priority 2019, published 2022).

Each compound was assayed against T1, Recombinant human KIF18A (1-467 His-tagged) protein (Homo sapiens, UniProt Q8NI77) (assay: KIF18A Enzyme Assay: microtubule-stimulated ATPase activity assay (ADP-Glo)). Settings: KIF18A protein 30 nM, 30 μg/mL pig microtubules, ATP at Km 75 μM, ADP-Glo luminescence, RT.
T1 construct: Recombinant human KIF18A (1-467 His-tagged) protein; His; made in house
Assay type: biochemical
Text: KIF18A Enzyme Assay: Microtubule-stimulated ATPase activity assay is used to measure KIF18A enzyme activity after treatment with compound. Compounds were 2-fold serially diluted in DMSO (Sigma Inc) over 22-point concentration range. Recombinant human KIF18A (1-467 His-tagged) protein was expressed using a baculovirus system and purified by affinity chromatography by Amgen Inc. Concentrations of KIF18A protein, microtubules (MT), and ATP in the reaction were optimized for standardized homogenous enzyme assay using ADP-Glorm Kinase/ATPase Assay Kit (Promega Inc). The assay measures ADP formed from the ATPase reaction. […] Concentration-response curve-fitting and IC50 determination was performed using Genedata Screener Software (Standard 15.0.1, Genedata Inc) with a four-parameter logistic regression fit model.
Table A provides data for compounds exemplified in the present application and priority document thereof, as representative compounds of the present invention, as follows: chemical name (as named by either ACD software or ChemDraw (Professional 15.0)) and biological data (IC50 in μM). Ex. […] refers to Example No.

T1 sequence (Q8NI77 1-467): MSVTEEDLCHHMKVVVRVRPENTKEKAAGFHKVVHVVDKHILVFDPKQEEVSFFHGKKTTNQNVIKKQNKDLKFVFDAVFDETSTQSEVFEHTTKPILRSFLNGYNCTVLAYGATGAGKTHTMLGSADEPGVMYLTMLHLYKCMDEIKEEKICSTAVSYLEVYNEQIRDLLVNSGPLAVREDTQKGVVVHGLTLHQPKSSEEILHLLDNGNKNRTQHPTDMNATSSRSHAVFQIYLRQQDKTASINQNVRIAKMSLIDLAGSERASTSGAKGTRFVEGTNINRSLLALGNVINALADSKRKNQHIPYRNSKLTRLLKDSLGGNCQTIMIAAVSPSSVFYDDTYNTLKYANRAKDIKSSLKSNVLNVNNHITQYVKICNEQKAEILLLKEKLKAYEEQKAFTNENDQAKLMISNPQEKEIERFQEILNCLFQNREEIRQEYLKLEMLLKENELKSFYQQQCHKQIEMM
T1 sequence (P02550 whole entry partner): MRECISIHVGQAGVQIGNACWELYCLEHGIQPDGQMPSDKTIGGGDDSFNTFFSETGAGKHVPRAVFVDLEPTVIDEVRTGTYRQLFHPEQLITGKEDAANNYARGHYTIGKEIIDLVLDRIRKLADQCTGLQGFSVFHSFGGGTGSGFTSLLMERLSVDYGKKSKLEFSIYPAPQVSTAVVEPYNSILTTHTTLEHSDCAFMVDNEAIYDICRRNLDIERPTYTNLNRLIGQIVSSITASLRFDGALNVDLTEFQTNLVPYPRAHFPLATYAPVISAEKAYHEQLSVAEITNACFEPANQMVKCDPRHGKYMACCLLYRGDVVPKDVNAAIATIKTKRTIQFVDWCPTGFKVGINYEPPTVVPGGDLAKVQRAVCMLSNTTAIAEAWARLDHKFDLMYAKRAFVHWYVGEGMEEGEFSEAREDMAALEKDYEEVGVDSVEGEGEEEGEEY
T1 sequence (P02554 whole entry partner): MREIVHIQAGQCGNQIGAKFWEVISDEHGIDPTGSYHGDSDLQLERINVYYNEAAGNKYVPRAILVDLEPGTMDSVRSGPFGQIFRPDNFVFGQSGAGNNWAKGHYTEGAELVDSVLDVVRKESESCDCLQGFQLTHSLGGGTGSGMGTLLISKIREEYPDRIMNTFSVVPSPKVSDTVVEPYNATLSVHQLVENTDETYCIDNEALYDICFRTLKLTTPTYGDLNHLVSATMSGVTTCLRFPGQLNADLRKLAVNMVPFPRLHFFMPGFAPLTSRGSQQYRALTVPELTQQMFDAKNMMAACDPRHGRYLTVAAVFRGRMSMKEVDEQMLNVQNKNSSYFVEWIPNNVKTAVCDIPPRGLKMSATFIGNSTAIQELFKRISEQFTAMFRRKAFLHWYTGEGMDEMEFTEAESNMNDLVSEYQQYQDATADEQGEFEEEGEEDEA

IC50 [nM] | SMILES
862 | CS(=O)(=O)c1ccc(C(=O)Nc2cccc(N3CCOCC3)c2)c(N2CCC3(CC2)CC3)c1 [Example 100-10, 4-(methylsulfonyl)-N-(3-morpholinophenyl)-2-(6-azaspiro[2.5]octan-6-yl)benzamide]
51 | CC(C)(C)NS(=O)(=O)c1cccc(NC(=O)c2ccc(CS(C)(=O)=O)cc2N2CCC3(CC2)CC3)c1 [Example 100-11, N-(3-(N-(tert-butyl)sulfamoyl)phenyl)-4-((methylsulfonyl)methyl)-2-(6-azaspiro[2.5]octan-6-yl)benzamide]
75 | CC(C)(C)NS(=O)(=O)c1cccc(NC(=O)c2ccc(CS(=O)(=O)CCO)cc2N2CCC3(CC2)CC3)c1 [Example 100-12, N-(3-(N-(tert-butyl)sulfamoyl)phenyl)-4-(((2-hydroxyethyl)sulfonyl)methyl)-2-(6-azaspiro[2.5]octan-6-yl)benzamide]
76 | CC(C)(C)NS(=O)(=O)c1cccc(NC(=O)c2ccc(S(=O)(=O)NC(C)(C)C)cc2N2CCC3(CC2)CC3)c1 [Example 100-13, 4-(N-(tert-butyl)sulfamoyl)-N-(3-(N-(tert-butyl)sulfamoyl)phenyl)-2-(6-azaspiro[2.5]octan-6-yl)benzamide]
130 | CC(C)(C)NS(=O)(=O)c1cccc(NC(=O)c2ccc(C3(C)COC3)cc2N2CCC3(CC2)CC3)c1 [Example 100-14, N-(3-(N-(tert-butyl)sulfamoyl)phenyl)-4-(3-methyloxetan-3-yl)-2-(6-azaspiro[2.5]octan-6-yl)benzamide]
88 | CC(C)(C)NS(=O)(=O)c1cccc(NC(=O)c2ccc(C3(O)COC3)cc2N2CCC3(CC2)CC3)c1 [Example 100-15, N-(3-(N-(tert-butyl)sulfamoyl)phenyl)-4-(3-hydroxyoxetan-3-yl)-2-(6-azaspiro[2.5]octan-6-yl)benzamide]
66 | CC(C)(CO)Nc1cccc(NC(=O)c2ccc(S(=O)(=O)NC3(C)COC3)cc2N2CCC3(CC2)CC3)c1F [Example 101-1, N-(2-fluoro-3-((1-hydroxy-2-methylpropan-2-yl)amino)phenyl)-4-(N-(3-methyloxetan-3-yl)sulfamoyl)-2-(6-azaspiro[2.5]octan-6-yl)benzamide]
298 | CC(C)(CO)Nc1cccc(NC(=O)c2ccc(NS(=O)(=O)C3(C)CC3)cc2N2CCC3(CC2)CC3)c1F [Example 101-2, N-(2-fluoro-3-((1-hydroxy-2-methylpropan-2-yl)amino)phenyl)-4-((1-methylcyclopropane)-1-sulfonamido)-2-(6-azaspiro[2.5]octan-6-yl)benzamide]
115 | CC(C)(CO)Nc1cccc(NC(=O)c2ccc(NS(=O)(=O)C3(C)CC3)cc2N2CCC3(CC2)CC3)c1 [Example 101-3, N-(3-((1-hydroxy-2-methylpropan-2-yl)amino)phenyl)-4-((1-methylcyclopropane)-1-sulfonamido)-2-(6-azaspiro[2.5]octan-6-yl)benzamide]
61 | CC(C)(C)NS(=O)(=O)c1cccc(NC(=O)c2ccc(NS(=O)(=O)C3(C)CC3)cc2N2CCC3(CC2)CC3)c1 [Example 102, N-(3-(N-(tert-Butyl)sulfamoyl)phenyl)-4-((1-methylcyclopropane)-1-sulfonamido)-2-(6-azaspiro[2.5]octan-6-yl)benzamide]
27 | CC(C)(C)NS(=O)(=O)c1cccc(NC(=O)c2ccc(NS(C)(=O)=O)cc2N2CCC3(CC2)CC3)c1 [Example 102-1, N-(3-(N-(tert-butyl)sulfamoyl)phenyl)-4-(methylsulfonamido)-2-(6-azaspiro[2.5]octan-6-yl)benzamide]
34 | CCS(=O)(=O)Nc1ccc(C(=O)Nc2cccc(S(=O)(=O)NC(C)(C)C)c2)c(N2CCC3(CC2)CC3)c1 [Example 102-2, N-(3-(N-(tert-butyl)sulfamoyl)phenyl)-4-(ethylsulfonamido)-2-(6-azaspiro[2.5]octan-6-yl)benzamide]
